# Measured values: US20260071252A1, “REVERSIBLE NANOPARTICLE AGGREGATES AND METHODS FOR DETECTING PROTEASES” (The Regents of the University of California, priority 2022, published 2026)
# Where “and” joins values, the source holds several entries; their conditions need not be identical. Equal entries are not always repeated. Where no end group is shown, it is not given here.
# Legend:
# [1] = RRK-based aggregation of citrate-coated AuNPs; conditions: for particle aggregation of AuNPs: peptides from 0.5 to 30 μM
# Source text: To induce reversible aggregation of the AuNPs, we used positively charged Arg and Lys-based peptide residues (i.e., RRK). The RRK peptide could induce plasmonic coupling by electrostatic attractions between negatively charged citrate molecules and guanidine and amine groups in RRK (FIG. 36a).^8,19 The size of AuNPs increased upon addition of RRK peptides, as confirmed by transmission electron microscopy (TEM) and dynamic light scattering (DLS) (FIG. 36b and FIG. 42). […] Raman spectroscopy observed the appearance of C—C stretching at 984 cm^−1 and C—N stretching at 1443 cm^−1 from Arg residues in RRK (FIG. 36d).^20 Lastly, R, RRK, and RRKRRK (SEQ ID NO:13) peptides (from 0.5 to 30 μM) were used to induce AuNP aggregates to study the impact of charge number on particle aggregation. […] A higher positive charge number can decrease the critical coagulation concentration (CCC).^7 RRK peptide was chosen in this study because particle aggregation induced by a strong cationic peptide (i.e., RRKRRK) (SEQ ID NO:13) can result in irreversible aggregation.
# (§1) Briefly, 10 μM of RRK peptide was used to aggregate 100 μL of AuNPs (conc approximately 3.6 nM). The particle aggregation rapidly occurred (less than 10 s), changing color from red to blue. Then the desired dissociation peptides were used to dissociate the AuNP aggregates. It is notable that these exemplary AuNPs are stabilized by citrate. Different surface ligands (for example, BSPP) and different sizes (40 or 60 nm) require different amounts of RRK peptide for particle aggregation.
# trypsin = experiment: Trypsin sensing with HS-PEG-peptide conjugates and Arg-Arg-AuNPs assemblies; type: biochemical
# Description: Peptides containing the motif Arg-Arg-Lys (RRK) were thus conjugated to a thiolated PEG capped with a carboxyl group (HS-PEG12-COOH, Mw=634 Da) via EDC/NHS cross-linking reaction. Three peptides based on the motif RRK were investigated and the number of RRK repetitions varied from 1 to 3 to increase the mass and charge of the resulting HS-PEG-peptide conjugate (FIG. 6A).
# From concentrations of 10 μM, HS-PEG12-COOH is capable to dissociate 100% of the assemblies (FIG. 21). However, the conjugation of the peptides to the HS-PEG12-COOH was expected to decrease its capacity to dissociate the assemblies as it increases its size and charge. In this context, the addition of the HS-PEG-peptide conjugates to AuNPs assemblies could not generate a colorimetric signal. However, in the presence of trypsin, the proteolytic cleavage could progressively remove the amino acids residues from the conjugate, thus reducing its size and charge that would restore the dissociation capacity. A colorimetric signal, proportional to the trypsin activity, could thus be observed (FIG. 6B).
# Typically, 1 mL of HS-PEG12-COOH (HS—(CH2CH2O)12—CH2CH2COOH, 634 Da, 1 mM) dissolved in MES buffer (10 mM, pH=5.5) was activated via the addition of 100 μL of EDC (50 mM, MES) and 40 μL of NHS (500 mM, MES). The reaction was stirred at room temperature for one hour. After one hour, 1 mL of peptide (or NH2-molecule) (1 mM) dissolved in PBS (100 mM, pH=7.4) was added to the activated HS-PEG12-COOH. The reaction was stirred for 4 hours at room temperature and then stored at 4° C.
# Typically, 5 μL of the PEG-peptide conjugate (0.44 mM) were added to 5 μL of PBS 1×. […] At the end of the incubation, 100 μL of aggregated AuNPs (Arg-Arg-AuNPs) were added, and a color change proportional to the trypsin concentration was observed. UV-Vis spectra were recorded 30 minutes later.
# [2] = Dissociation efficiency of HS-PEG6-OCH3 for alternative assembly conditions or coating ligands; conditions: high concentration (>100 μM) of HS-PEG6-OCH3
# Description: First, peptide-free conditions were used to promote the assembly of AuNPs-citrate and its dissociation with HS-PEG6-OCH3 was evaluated (FIG. 3A). Here, salts were added to AuNPs-citrate to induce aggregation via disruption of the electrostatic repulsion forces between the particles. […] Unlike the peptide Arg-Arg, these ions cannot sterically prevent the AuNPs from falling in an irreversible aggregated state.
# AuNPs with different coating ligands were also evaluated and compared to citrate: bis(p-sulfonatophenyl)phenylphosphine (BSPP), mercaptobenzoic acid (MBA), or thiolated PEG-COOH (HS-PEG-COOH; Mw=634 g·mol^−1). […] This is because MBA and HS-PEG-COOH make covalent Au—S bonds with the gold surface that prevent subsequent grafting of HS-PEG6-OCH3.
# Finally, an alternative control peptide was used for assembly (Cys-Arg-Lys).
# [3] = Colloidal stability of the dissociated AuNPs (aggregation parameter); type: physicochemical; conditions: for colloidal stability of peptide-capped AuNPs: NaCl 0.5 to 2 μM (so in the source), absorbance 520/600 nm
# Description: We further studied the role of Glu, Lys, and Pro amino acids in A1 peptides (FIG. 37h). For example, Pro-based spacer can provide a rigid and self-assembling monolayer (SAM) that increases the colloidal stability of AuNPs.^28 When the spacer was moved to the site between Glu and Lys residues (i.e., A5), the dissociation capacity was 50% lower than A1 peptide. […] A1 peptide without Lys (i.e., A7) decreased to 30% of the dissociation capacity likely due to the decrease in grafting kinetics of thiol-Au bonds and hydration layers.^22,25 Lastly, the dissociated AuNPs were incubated in different concentrations ([…]) of NaCl to examine colloidal stability of the dissociated AuNPs (FIG. 37i).
# Pro-, Ala-, and Gly-based spacers have different hydrophobic and hydrophilic natures, rigidity, and flexibility.^22,29 For example, Pro residue is more hydrophobic and rigid (i.e, low mobility) while Gly residue is more hydrophilic and flexible. To investigate the impact of the rigidity and hydrophilicity of the peptides on the particle dissociation, we synthesized A1, A10, and A11 peptides that have different spacers: PP, AA, GG (FIG. 38a-b and FIG. 49). We also synthesized the peptide without a spacer (i.e., A9) to confirm the impact of the spacer on particle dissociation. […] We further compared colloidal stability of the dissociated AuNPs by A1, A9, A10, and A11 peptides. The dissociated AuNPs were incubated in NaCl (from […]) for 1 h and measured variations of absorbance between 520 nm and 600 nm.
# This exemplary dissociation strategy can also improve colloidal stability of plasmonic nanoparticles. […] Lastly, this exemplary dissociation strategy is less affected by matrix interference. We replaced the sample matrix with 100% human plasma, urine, saliva, and seawater after RRK-based AuNPs aggregation. After adding dissociation peptides, reversible aggregation still occurred, leading to a blue-shift of the plasmonic resonance peak; this in turn changes color from blue to red in 100% human plasma, urine, saliva, and seawater (FIG. 40j-k and FIG. 27).
# [4] = target: SARS-CoV-2 main protease (Mpro) (Severe acute respiratory syndrome coronavirus 2, UniProt P0DTD1)
# [5] = Peptide-enabled dissociation of RRK-induced AuNP aggregates
# Description: After inducing AuNP aggregates by the RRK peptides, the A1 peptides with different concentrations from 7 to 300 μM were used to dissociate AuNP aggregates. The plasmonic resonance peak of AuNP aggregates blue shifted to 520 nm after particle dissociation. (FIG. 37b). The hydrodynamic diameter of AuNP aggregates (greater than (>) 1 μm) was reduced to 27±0.07 nm, and the surface charge of AuNPs was—13.4±1.03 mV because of surface modification with neutral charged A1 peptides (150 μM) and residual citrates (FIG. 37c). Particle dissociation induced color change from blue to red and a decrease in size as confirmed by time-dependent photographs, multi-laser wavelength nanoparticle tracking analysis (M-NTA), and TEM (FIG. 37d-e and FIG. 45A-C).
# To further study the role of each amino acid in the A1 peptide, we synthesized eight peptide sequences (from A2 to A8) for control experiments (FIG. 46A-H). Table 1 includes peptide sequence, net charge, critical dissociation concentrations (CDC), and design rationale. First, we replaced Cys residue with Gly (i.e., A2) to confirm the role of the anchoring group. […] Second, we hypothesized that negatively charged EE residues were required for particle dissociation because they provide electrostatic repulsions for citrate-coated AuNPs.
# as §1
# Briefly, RRK peptides (8-10 μM) was first used to trigger AuNP aggregation in distilled water. The sample was centrifuged at […] for 5 min to remove the supernatant. Then, the pellet was re-dispersed in 100% human saliva, plasma, urine, and seawater. After re-dispersion, the desired amounts of dissociation peptide were used to dissociate AuNPs aggregates in different matrixes. […] The experiment was performed with three replicates, and the microplate reader was used to measure spectral scanning from 300 to 900 nm before and after dissociation. The ratiometric signal (λ520/λ700) was referred as dissociation. The data was blanked to remove background signal.
# [6] = Peptide-induced (Arg-Arg) assembly of AuNPs-citrate, TEM/MANTA/UV-Vis; conditions: water
# Source text: Formation of AuNP assemblies. In this study, we investigated the possibility of forming convenient and reversible AuNPs assemblies using only elementary 15 nm AuNPs-citrate suspended in water and short peptides without the need for a complex surface modification. Peptides were used because they are relatively bulky and thus their steric prevented the particles from entering a permanent aggregated state. Arginine in particular can strongly interact with citrate anions via electrostatic interactions. A dipeptide containing two repetitions of arginine (Arg-Arg or RR) was thus used to interact with multiple particles at the same time and induce assembly.
# Multispectral advanced nanoparticles tracking analysis (MANTA) was then used to confirm the size increase: The initial blue scattering corresponding to a hydrodynamic diameter of 40±25 nm (FIG. 1C) transformed immediately into red scattering corresponding to a hydrodynamic diameter of approximately 467±120 nm (FIG. 1D). Importantly, the count of particles decreased by more than 90%—from 2.5×10^5/mL to 2×10^4/mL, thus confirming that the vast majority of the AuNPs-citrate were aggregated. TEM images at different magnifications are seen in the supporting information (FIG. 10 and FIG. 11).
# AuNPs Assembly and Dissociation Assembly. Typically, 1 mL of AuNPs-citrate at OD=1.5 was mixed with 50 μL of Arg-Arg (100 μM) to provoke the AuNPs assembly. The color of the suspensions rapidly changed from red to blue. The assembled AuNPs (Arg-Arg-AuNPs) were stable over time when stored at 4° C. and could be used for dissociation even month after their assembly.
# The optical absorption measurements were collected using a hybrid multi-mode microplate reader (Synergy™ H1 model, BioTek Instruments, Inc.) in a 96-well plate. The dissociation of assembly was characterized by measuring the ratio of the absorbance at 520 nm or 530 nm and 700 nm or 820 nm for 20 nm NPs or 40 nm NPs, respectively.
# The multispectral advanced nanoparticle tracking analysis (MANTA) is a technique that builds images from the particles' light scattering via three lasers of different wavelengths (for example, blue, green, and red); the wavelength of scattering depends on nanoparticle size. Thus, small particles (less than, or <, 100 nm) appear blue while larger particles appear greener or redder. MANTA uses these images to count the nanoparticles and calculate their size based on Brownian motion. MANTA was performed with the VIEWSIZER 3000™ (Horiba Scientific, USA). The temperature was set to 25° C. during the measurement. Automated noise analysis determines the optimal wavelength for representing each nanoparticle. Here, 8-bit composite videos were generated, and 10 videos were used per analysis (300 frames for seconds). A quartz cuvette with minimum volume of 1 mL was used for the measurement and the AuNPs concentrations was set up at 0.04 nM.
compound,measurement,setting,value
Arg-Arg-Lys [RRK],particle aggregation of AuNPs,[1],effectively induced particle aggregation
same,plasmonic resonance peak after addition of peptide,[1]; red-shifted from 520 nm,648 nm
"HS-PEG-RRKRRKRRK: HS-PEG12-COOH conjugated to peptide RRKRRKRRK via EDC/NHS (also: HS-PEG12 conjugated via EDC/NHS, site not given here)",dissociation capacity of the intact conjugate,"trypsin; titrated to Arg-Arg-AuNPs, up to >100 μM, no trypsin",total quenching of the dissociation capacity
same,dissociation capacity after digestion with trypsin,"trypsin; trypsin 10 μM, 37° C., 24 h",restored
Cys-Arg-Lys [reference compound],dissociation of the assembly by HS-PEG6-OCH3,[2],irreversible
RRKRRK,particle aggregation of AuNPs,[1],effectively induced particle aggregation
Ace-CGGKKEEAVLQSGFR-Am (Ac-CGGKKEEAVLQSGFR-NH2) [Peptide A18],colloidal stability in extreme conditions,"[3]; DMEM, human plasma, saliva, human urine, NaCl 0.5 to 2M",maintained high colloidal stability
same,CDC,[4],at least 40 μM
same,LoD for Mpro,[4],12.3 nM and 16.7 nM and 16.4 nM
same,specificity test,[4],only Mpro dissociated AuNP aggregates
Ace-EEKKPPC-Am [Peptide A1],colloidal stability of peptide-capped AuNPs,[3],higher colloidal stability than citrate-coated AuNPs
same,time to dissociate AuNP aggregates,"[5]; >150 μM peptide, ratiometric signal λ520/λ700",20 min
same,hydrodynamic diameter after dissociation,"[5]; A1 peptide 150 μM, aggregates >1 μm before",27±0.07 nm
same,CDC,"[5]; critical dissociation concentration, X (no dissociation)",150 µM
same,CDC,"[5]; spacer comparison PP, AA, GG",40 µM
Ace-EEKKC-Am [Peptide A9],colloidal stability of peptide-capped AuNPs,[3],relatively low colloidal stability
"N=C(N)NCCC[C@H](N)C(=O)O [R, arginine, reference compound]",induction of assembly of AuNPs-citrate,[6],could not induce any form of assembly
same,particle aggregation of AuNPs,[1],did not aggregate
